Among the data in ChEMBL document CHEMBL5036353, “Discovery of Pyrazolo[3,4-d]pyridazinone Derivatives as Selective DDR1 Inhibitors via Deep Learning Based Design, Synthesis, and Biological Evaluation” (J Med Chem, 2022) are Activity values, retold here.

The source made the active and inactive calls. The calls are words filed in the database; no cut-off is given here.

Assay [1] relates to Mus musculus. Nature of the assay: Anti-colitis activity against DSS-induced IBD C57BL/6 mouse model assessed as reduction in serum IL-6 expression at 5 to 10 mg/kg, po administered daily by ELISA. It counts as functional, organism-based. Conditions: dose 5-10 mg/kg. Background: In an ELISA, binding on a coated surface is turned into a signal by an enzyme label.
For assay [2], the system named is Mus musculus. In words: Anti-colitis activity against DSS-induced IBD C57BL/6 mouse model assessed as improvement in DSS induced weight loss at 5 to 10 mg/kg, po administered daily and measured after 5 to 8 days. It counts as functional, organism-based. Conditions: dose 5-10 mg/kg, time 5-8 day.
The test system of assay [3] is THP-1. Nature of the assay: Antiinflammatory activity against human THP-1 derived macrophage assessed as inhibition of LPS-induced IL-1beta expression at 10 uM by ELISA. It counts as functional, cell-based.
Assay [4] concerns THP-1. Nature of the assay: Antiinflammatory activity against human THP-1 derived macrophage assessed as inhibition of LPS-induced TNF expression at 10 uM by ELISA. It counts as functional, cell-based.
The subject of assay [5] is Mus musculus. In words: Anti-colitis activity against DSS-induced IBD C57BL/6 mouse model assessed as reduction in IL-6 transcription level in colon at 5 to 10 mg/kg, po administered daily by RT-qPCR analysis. It counts as functional, organism-based. The following applies: dose 5-10 mg/kg. A general note: Real-time PCR tracks product formation cycle by cycle.
In assay [6] the test system is Mus musculus. Nature of the assay: Anti-colitis activity against DSS-induced IBD C57BL/6 mouse model assessed as reduction in serum TNF expression at 5 to 10 mg/kg, po administered daily by ELISA. In kind it is functional, organism-based. The following applies: dose 5-10 mg/kg.
The test system of assay [7] is Mus musculus. Nature of the assay: Anti-colitis activity against DSS-induced IBD C57BL/6 mouse model assessed as reduction in inflammatory cell infiltration in colon at 5 to 10 mg/kg, po administered daily measured after 9 days by HE staining based analysis. It counts as functional, organism-based. The following applies: dose 5-10 mg/kg, time 9.0 day.
For assay [8], the system named is THP-1. Nature of the assay: Antiinflammatory activity against human THP-1 derived macrophages assessed as inhibition of LPS-induced IL6 expression by ELISA. In kind it is functional, cell-based. Conditions: dose 10.0 µM.
Assay [9] deals with NT-3 growth factor receptor (Homo sapiens) (UniProt Q16288). Nature of the assay: Inhibition of recombinant human TRKC (510 to end residues) assessed as residual activity at 10 uM using GEEPLYWSFPAKKK as substrate incubated for 40 mins in presence of [gamma33P]ATP by scintillation counting based radiometry assay relative to control.
NT-3 growth factor receptor (Homo sapiens), sequence (Q16288 32-839 limits assumed): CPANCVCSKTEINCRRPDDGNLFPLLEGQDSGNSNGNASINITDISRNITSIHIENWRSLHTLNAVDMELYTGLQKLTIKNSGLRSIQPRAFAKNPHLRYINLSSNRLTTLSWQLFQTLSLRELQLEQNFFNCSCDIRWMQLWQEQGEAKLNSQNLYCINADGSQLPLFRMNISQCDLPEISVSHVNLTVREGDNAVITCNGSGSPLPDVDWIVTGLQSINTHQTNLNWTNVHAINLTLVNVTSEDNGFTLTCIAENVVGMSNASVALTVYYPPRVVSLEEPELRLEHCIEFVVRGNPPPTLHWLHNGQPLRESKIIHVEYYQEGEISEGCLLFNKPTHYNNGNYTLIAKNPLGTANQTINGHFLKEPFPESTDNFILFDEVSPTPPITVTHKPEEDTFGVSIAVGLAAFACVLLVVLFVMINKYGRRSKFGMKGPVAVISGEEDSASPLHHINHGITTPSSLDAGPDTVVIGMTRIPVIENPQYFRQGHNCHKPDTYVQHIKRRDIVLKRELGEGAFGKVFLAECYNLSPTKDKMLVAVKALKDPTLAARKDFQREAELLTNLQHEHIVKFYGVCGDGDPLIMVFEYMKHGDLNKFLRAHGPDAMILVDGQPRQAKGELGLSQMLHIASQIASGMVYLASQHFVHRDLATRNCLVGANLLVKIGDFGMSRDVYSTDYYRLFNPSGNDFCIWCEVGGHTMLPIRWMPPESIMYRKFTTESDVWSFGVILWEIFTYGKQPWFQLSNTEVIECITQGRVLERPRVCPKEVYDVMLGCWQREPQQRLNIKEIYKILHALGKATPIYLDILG
Assay [10] deals with Mus musculus. Nature of the assay: Anti-colitis activity against DSS-induced IBD C57BL/6 mouse model assessed as reduction in IL-1beta transcription level in colon at 5 to 10 mg/kg, po administered daily by RT-qPCR analysis. In kind it is functional, organism-based. Conditions: dose 5-10 mg/kg.
The subject of assay [11] is Mus musculus. In words: Anti-colitis activity against DSS-induced IBD C57BL/6 mouse model assessed as improvement in DSS reduced colon length at 5 to 10 mg/kg, po administered daily and measured after 9 days. In kind it is functional, organism-based. The following applies: dose 5-10 mg/kg, time 9.0 day.
The test system of assay [12] is Mus musculus. Nature of the assay: Anti-colitis activity against DSS-induced IBD C57BL/6 mouse model assessed as reduction in fecal occult blood score at 5 to 10 mg/kg, po administered daily and measured after 9 days. In kind it is functional, organism-based. Conditions: dose 5-10 mg/kg, time 9.0 day.
Assay [13] deals with Macrophage. Nature of the assay: Antiinflammatory activity against mouse primary bone marrow derived macrophages assessed as inhibition of LPS-induced IL-1beta expression at 10 uM by ELISA. It counts as functional, tissue-based.
Assay [14] relates to Macrophage. Nature of the assay: Antiinflammatory activity against mouse primary bone marrow derived macrophages assessed as inhibition of LPS-induced IL-6 expression by ELISA. In kind it is functional, tissue-based. Conditions: dose 10.0 µM.
The test system of assay [15] is Mus musculus. In words: Anti-colitis activity against DSS-induced IBD C57BL/6 mouse model assessed as reduction in serum IL-1beta expression at 5 to 10 mg/kg, po administered daily by ELISA. It counts as functional, organism-based. The following applies: dose 5-10 mg/kg.
Assay [16] has as its system Macrophage. In words: Antiinflammatory activity against mouse primary bone marrow derived macrophages assessed as inhibition of LPS-induced TNF expression at 10 uM by ELISA. It counts as functional, tissue-based.
The test system of assay [17] is Mus musculus. In words: Anti-colitis activity against DSS-induced IBD C57BL/6 mouse model assessed as reduction in crypt loss in colon at 5 to 10 mg/kg, po administered daily measured after 9 days by HE staining based analysis. In kind it is functional, organism-based. Conditions: dose 5-10 mg/kg, time 9.0 day.
The subject of assay [18] is Mus musculus. In words: Anti-colitis activity against DSS-induced IBD C57BL/6 mouse model assessed as reduction in severe epithelial destruction in colon at 5 to 10 mg/kg, po administered daily measured after 9 days by HE staining based analysis. In kind it is functional, organism-based. The following applies: dose 5-10 mg/kg, time 9.0 day.
Assay [19] deals with Mus musculus. In words: Anti-colitis activity against DSS-induced IBD C57BL/6 mouse model assessed as reduction in TNF transcription level in colon at 5 to 10 mg/kg, po administered daily by RT-qPCR analysis. It counts as functional, organism-based. Conditions: dose 5-10 mg/kg.

Turning to `CC(=O)Nc1ccc(-n2nc3c(=O)[nH]nc(N)c3c2-c2oc3cc(C(=O)Nc4cccc(C(F)(F)F)c4)ccc3c2C)cc1`, the outcome in the assay with Mus musculus [1], in the assay on Mus musculus [2], in the assay on THP-1 [3], in the assay with THP-1 [4], in the assay on Mus musculus [5] and with Mus musculus [6] was Active. For the same compound, the result in the assay with Mus musculus [7], in the assay with Mus musculus [10], in the assay on Mus musculus [11], with Mus musculus [12], in the assay with Macrophage [13] and with Mus musculus [15] was Active. Also, the result with Macrophage [16], with Mus musculus [17], in the assay with Mus musculus [18] and in the assay on Mus musculus [19] was Active. For the same compound, the Activity result with THP-1 [8] was “Dose-Dependent Effect”; in assay [9], 45%; in the assay with Macrophage [14], “Dose-Dependent Effect”.
